Measurements published in patent US8574563B2 (Bristol-Myers Squibb Company, priority 2006, dated 2013).
Read-outs that look alike come from different tables or passages of the source.

System: HCV 1b-377-neo replicon cells
Assay: HCV replicon assay, HCV 1b-377-neo replicon cells (1b FRET)
Type: cell-based, Hepatitis C virus genotype 1b
Details: HCV 1b-377-neo replicon cells, HCV 1b genotype; for EC50: read-out: EC50 range against HCV 1b (Table 2, Range)
Outline: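 Compounds tested in HCV genotype 1b-377-neo replicon cells with a FRET read-out. Cells resistant to a reference NS5A inhibitor through a Y2065H NS5A mutation were run alongside wild-type cells.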

Row | Structure (SMILES) | EC50 (Hepatitis C virus) [nM] | also measured
1 | CCOC(=O)N[C@@H](C)C(=O)N1CCC[C@H]1c1ncc(-c2ccc(-c3ccc(-c4cnc([C@@H]5CCCN5C(=O)[C@H](C)NC(=O)OCC)[nH]4)cc3)cc2)[nH]1 [Example M5, ethyl ((1S)-2-((2S)-2-(5-(4′-(2-((2S)-1-(N-(ethoxycarbonyl)-L-alanyl)-2-pyrrolidinyl)-1H-imidazol-5-yl)-4-biphenylyl)-1H-imidazol-2-yl)-1-pyrrolidinyl)-1-methyl-2-oxoethyl)carbamate] | 1000 to 10000 | 
2 | COC(=O)NC1(C(=O)N2CCC[C@H]2c2ncc(-c3ccc(-c4ccc(-c5cnc([C@@H]6CCCN6C(=O)C6(NC(=O)OC)CC6)[nH]5)cc4)cc3)[nH]2)CC1 [Example M6, dimethyl (4,4′-biphenyldiylbis(1H-imidazole-5,2-diyl(2S)-2,1-pyrrolidinediylcarbonyl-1,1-cyclopropanediyl))bis-carbamate] | 1000 to 10000 | 
3 | COC(=O)NC(C)(C)C(=O)N1CCC[C@H]1c1ncc(-c2ccc(-c3ccc(-c4cnc([C@@H]5CCCN5C(=O)C(C)(C)NC(=O)OC)[nH]4)cc3)cc2)[nH]1 [Example M7, methyl (2-((2S)-2-(5-(4′-(2-((2S)-1-(2-((methoxycarbonyl)amino)-2-methylpropanoyl)-2-pyrrolidinyl)-1H-imidazol-5-yl)-4-biphenylyl)-1H-imidazol-2-yl)-1-pyrrolidinyl)-1,1-dimethyl-2-oxoethyl)carbamate] |  | EC50 range against HCV 1b (Table 2, Range): >A
4 | C[C@H](C(=O)N1CCC[C@H]1c1ncc(-c2ccc(-c3ccc(-c4cnc([C@@H]5CCCN5C(=O)[C@@H](C)N(C)C)[nH]4)cc3)cc2)[nH]1)N(C)C [Example M8, (2R,2′R)-1,1′-(4,4′-biphenyldiylbis(1H-imidazole-5,2-diyl(2S)-2,1-pyrrolidinediyl))bis(N,N-dimethyl-1-oxo-2-propanamine)] | 1000 to 10000 | 
5 | CCN(CC)[C@H](C)C(=O)N1CCC[C@H]1c1ncc(-c2ccc(-c3ccc(-c4cnc([C@@H]5CCCN5C(=O)[C@@H](C)N(CC)CC)[nH]4)cc3)cc2)[nH]1 [Example M9, (2R,2′R)-1,1′-(4,4′-biphenyldiylbis(1H-imidazole-5,2-diyl(2S)-2,1-pyrrolidinediyl))bis(N,N-diethyl-1-oxo-2-propanamine)] | 100 to 999 | 
6 | CCN(CC)[C@@H](C(=O)N1CCC[C@H]1c1ncc(-c2ccc(-c3ccc(-c4cnc([C@@H]5CCCN5C(=O)[C@@H](C(C)C)N(CC)CC)[nH]4)cc3)cc2)[nH]1)C(C)C [Example M10, (2R,2′R)-1,1′-(4,4′-biphenyldiylbis(1H-imidazole-5,2-diyl(2S)-2,1-pyrrolidinediyl))bis(N,N-diethyl-3-methyl-1-oxo-2-butanamine)] |  | EC50 range against HCV 1b (Table 2, Range): >A
7 | COC(=O)N(C)[C@H](C(=O)N1CCC[C@H]1c1ncc(-c2ccc(-c3ccc(-c4cnc([C@@H]5CCCN5C(=O)[C@H](C(C)C)N(C)C(=O)OC)[nH]4)cc3)cc2)[nH]1)C(C)C [Example M11, methyl ((1S)-1-(((2S)-2-(5-(4′-(2-((2S)-1-((2S)-2-((methoxycarbonyl)(methyl)amino)-3-methylbutanoyl)-2-pyrrolidinyl)-1H-imidazol-5-yl)-4-biphenylyl)-1H-imidazol-2-yl)-1-pyrrolidinyl)carbonyl)-2-methylpropyl)methyl-carbamate] | 1 to 99 | 
8 | COC(=O)N[C@H](C(=O)N1CCC[C@H]1c1ncc(-c2ccc(-c3ccc(-c4cnc([C@@H]5CCCN5C(=O)[C@@H](NC(=O)OC)c5ccccc5)[nH]4)cc3)cc2)[nH]1)c1ccccc1 [Example M12, dimethyl (4,4′-biphenyldiylbis(1H-imidazole-5,2-diyl(2S)-2,1-pyrrolidinediyl((1S)-2-oxo-1-phenyl-2,1-ethanediyl)))biscarbamate] | 1 to 99 | 
9 | CCCN(CCC)[C@H](C)C(=O)N1CCC[C@H]1c1ncc(-c2ccc(-c3ccc(-c4cnc([C@@H]5CCCN5C(=O)[C@@H](C)N(CCC)CCC)[nH]4)cc3)cc2)[nH]1 [Example M13, N,N′-(4,4′-biphenyldiylbis(1H-imidazole-5,2-diyl(2S)-2,1-pyrrolidinediyl((2R)-1-oxo-1,2-propanediyl)))bis(N-propyl-1-propanamine)] | 100 to 999 | 
10 | COC(=O)N[C@H](C(=O)N1CCC[C@H]1c1ncc(-c2ccc(-c3ccc(-c4cnc([C@@H]5CCCN5C(=O)[C@@H](NC(=O)OC)C(C)(C)O)[nH]4)cc3)cc2)[nH]1)C(C)(C)O [Example M14, methyl ((1S)-2-hydroxy-1-(((2S)-2-(5-(4′-(2-((2S)-1-((2S)-3-hydroxy-2-((methoxycarbonyl)amino)-3-methylbutanoyl)-2-pyrrolidinyl)-1H-imidazol-5-yl)-4-biphenylyl)-1H-imidazol-2-yl)-1-pyrrolidinyl)carbonyl)-2-methylpropyl)carbamate] | 100 to 999 | 
11 | COC(=O)N[C@H](C(=O)N1CCC[C@H]1c1ncc(-c2ccc(-c3ccc(-c4cnc([C@@H]5CCCN5C(=O)[C@@H](NC(=O)OC)[C@@H](C)O)[nH]4)cc3)cc2)[nH]1)[C@@H](C)O [Example M15, methyl ((1S,2R)-2-hydroxy-1-(((2S)-2-(5-(4′-(2-((2S)-1-((2S,3R)-3-hydroxy-2-((methoxycarbonyl)amino)butanoyl)-2-pyrrolidinyl)-1H-imidazol-5-yl)-4-biphenylyl)-1H-imidazol-2-yl)-1-pyrrolidinyl)carbonyl)propyl)carbamate] | 100 to 999 | 
12 | COC(=O)N[C@H](C(=O)N1CCC[C@H]1c1ncc(-c2ccc(-c3ccc(-c4cnc([C@@H]5CCCN5C(=O)[C@@H](NC(=O)OC)[C@H](C)O)[nH]4)cc3)cc2)[nH]1)[C@H](C)O [Example M16, methyl ((1S,2S)-2-hydroxy-1-(((2S)-2-(5-(4′-(2-((2S)-1-((2S,3S)-3-hydroxy-2-((methoxycarbonyl)amino)butanoyl)-2-pyrrolidinyl)-1H-imidazol-5-yl)-4-biphenylyl)-1H-imidazol-2-yl)-1-pyrrolidinyl)carbonyl)propyl)carbamate] | 1000 to 10000 | 
13 | COC(=O)N[C@@H](C)C(=O)N1CCC[C@H]1c1ncc(-c2ccc(-c3ccc(-c4cnc([C@@H]5CCCN5[C@@](C)(C=O)NC(=O)OC)[nH]4)cc3)cc2)[nH]1 [Example M17, methyl ((1S)-1-((2S)-2-(5-(4′-(2-((2S)-1-(N-(methoxycarbonyl)-L-alanyl)-2-pyrrolidinyl)-1H-imidazol-5-yl)-4-biphenylyl)-1H-imidazol-2-yl)-1-pyrrolidinyl)-1-methyl-2-oxoethyl)carbamate] | 100 to 999 | 
14 | COC(=O)N[C@H](C)C(=O)N1CCC[C@H]1c1ncc(-c2ccc(-c3ccc(-c4cnc([C@@H]5CCCN5C(=O)[C@@H](C)NC(=O)OC)[nH]4)cc3)cc2)[nH]1 [Example M18, methyl ((1R)-2-((2S)-2-(5-(4′-(2-((2S)-1-(N-(methoxycarbonyl)-D-alanyl)-2-pyrrolidinyl)-1H-imidazol-5-yl)-4-biphenylyl)-1H-imidazol-2-yl)-1-pyrrolidinyl)-1-methyl-2-oxoethyl)carbamate] | 1000 to 10000 | 
15 | C[C@@H](C(=O)N1CCC[C@H]1c1ncc(-c2ccc(-c3ccc(-c4cnc([C@@H]5CCCN5C(=O)[C@H](C)N(C)C)[nH]4)cc3)cc2)[nH]1)N(C)C [Example M19, (2S,2′S)-1,1′-(4,4′-biphenyldiylbis(1H-imidazole-5,2-diyl(2S)-2,1-pyrrolidinediyl))bis(N,N-dimethyl-1-oxo-2-propanamine)] |  | EC50 range against HCV 1b (Table 2, Range): >A
16 | CC[C@H](NC(=O)OC)C(=O)N1CCC[C@H]1c1ncc(-c2ccc(-c3ccc(-c4cnc([C@@H]5CCCN5C(=O)[C@H](CC)NC(=O)OC)[nH]4)cc3)cc2)[nH]1 [Example M21, dimethyl (4,4′-biphenyldiylbis(1H-imidazole-5,2-diyl(2S)-2,1-pyrroldinediyl((2S)-1-oxo-1,2-butanediyl)))biscarbamate] |  | EC50: 1 to 99 nM
17 | COC(=O)N[C@@H](C(=O)N1CCC[C@H]1c1ncc(-c2ccc(-c3ccc(-c4cnc([C@@H]5CCCN5C(=O)[C@H](NC(=O)OC)C5CC5)[nH]4)cc3)cc2)[nH]1)C1CC1 [Example M22, dimethyl (4,4′-biphenyldiylbis(1H-imidazole-5,2-diyl(2S)-2,1-pyrrolidinediyl((1R)-1-cyclopropyl-2-oxo-2,1-ethanediyl)))biscarbamate] | 1000 to 10000 | 
18 | COC(=O)N[C@H](C(=O)N1CCC[C@H]1c1ncc(-c2ccc(-c3ccc(-c4cnc([C@@H]5CCCN5C(=O)[C@@H](NC(=O)OC)C5CC5)[nH]4)cc3)cc2)[nH]1)C1CC1 [Example M23, dimethyl (4,4′-biphenyldiylbis(1H-imidazole-5,2-diyl(2S)-2,1-pyrrolidinediyl((1S)-1-cyclopropyl-2-oxo-2,1-ethanediyl)))biscarbamate] | 1 to 99 | 
19 | COC(=O)N[C@H](C(=O)N1CCC[C@H]1c1ncc(-c2ccc(-c3ccc(-c4cnc([C@@H]5CCCN5C(=O)[C@@H](NC(=O)OC)C(C)(C)C)[nH]4)cc3)cc2)[nH]1)C(C)(C)C [Example M24, methyl ((1S)-1-(((2S)-2-(5-(4′-(2-((2S)-1-((2S)-2-((methoxycarbonyl)amino)-3,3-dimethylbutanoyl)-2-pyrrolidinyl)-1H-imidazol-5-yl)-4-biphenylyl)-1H-imidazol-2-yl)-1-pyrrolidinyl)carbonyl)-2,2-dimethylpropyl)carbamate] | 1 to 99 | 
20 | C=CC[C@H](NC(=O)OC)C(=O)N1CCC[C@H]1c1ncc(-c2ccc(-c3ccc(-c4cnc([C@@H]5CCCN5C(=O)[C@H](CC=C)NC(=O)OC)[nH]4)cc3)cc2)[nH]1 [Example M25, dimethyl (4,4′-biphenyldiylbis(1H-imidazole-5,2-diyl(2S)-2,1-pyrrolidinediyl((4S)-5-oxo-1-pentene-5,4-diyl)))biscarbamate] | 1 to 99 | 
21 | COC[C@H](NC(=O)OC)C(=O)N1CCC[C@H]1c1ncc(-c2ccc(-c3ccc(-c4cnc([C@@H]5CCCN5C(=O)[C@H](COC)NC(=O)OC)[nH]4)cc3)cc2)[nH]1 [Example M26, methyl ((1S)-2-((2S)-2-(5-(4′-(2-((2S)-1-(N-(methoxycarbonyl)-O-methyl-L-seryl)-2-pyrrolidinyl)-1H-imidazol-5-yl)-4-biphenylyl)-1H-imidazol-2-yl)-1-pyrrolidinyl)-1-(methoxymethyl)-2-oxoethyl)carbamate] | 100 to 999 | 
